Tests used:
[1] = tested on: CD44 variant 6 expressing cells MDA-MB231, HELA, 4T1 and PANC-1; conditions: CD44v6 expressing cells
Description: (§1) After complete adhesion, the cell culture medium was replaced with fresh medium containing FITC labeled peptides (10 μM) and then the cells were incubated at 37° C. for 1 h and cells were washed with PBS for 3-5 min (thrice) and stained with CD44v6 antibody (Santa cruz), followed by Alexa 594-labeled goat anti-mouse IgG secondary antibody.
(§2) To screen CD44v6-binding peptides, the present inventors first prepared HEK-293 cells transfected with CD44v6-GFP plasmid by transient transfection. […] Twenty phage clones were randomly picked from the third, fourth, and fifth rounds and the peptide-coding DNA inserts of the phage clones were sequenced.

MCF-7 = conditions: CD44v6 non-expressing cells
Description: as §1, §2

[2] = tested on: CD44v6 silenced MDA-MB-231 cells; conditions: for binding of FITC labelled peptide after silencing of CD44v6 gene (flow cytometry): MDA-MB-231, CD44v6 siRNA; for binding of FITC labelled peptide after siRNA treatment (immunofluorescence staining): MDA-MB-231, siRNA 100 nmol
Description: Control siRNA (50-[…] (dTdT) 30) and glyceraldehyde-3 phosphate dehydrogenase (GAPDH) siRNA (50-[…] (dTdT)-30) were also purchased from Bioneer, Daejeon, Korea. The transfection was performed using Lipofectamine 2000 (Invitrogen, Karlsruhe, Germany). Two rounds of transfection with an interval of 24 h between were performed. 48 h after the first transfection the cells were serum-starved for 24 h and then subjected to further treatment.
MDA-MB-231 cells were serum-starved for 24 hours and then subjected to further treatment. SiRNAs v6-1 and v6-2 transfected and kept it for different time interval to achieve the CD44v6 expression inhibition.

CD44v6 = conditions: biotinylated peptide + avidin bead + cell lysate
Description: (§3) Biotinylated CD44v6 peptides was incubated with monomer avidin magnetic beads (Bioclone Inc.) for 30-60 min at room temperature with gentle rotation to be used for peptide pulldown, prior to incubation with cell lysates. Cells were lysed using cell lysis reagent (Thermo scientific) with protease inhibitors. After the first incubation of biotinylated peptide+avidin bead (complex 1) were washed with PBS and complex is incubated with cell lysate for 30-60 min at room temperature with gentle rotation. Bound biotinylated peptide+avidin bead+cell lysate (complex 2) were eluted by 1× blocking buffer/elution buffer for 5-10 min incubation after elution and the elute was subjected to western blot analysis using CD44v6 antibody (Millipore) to pull down the specific protein.
(§4) Biotinylated peptide+avidin bead+cell lysate (complex 2) were eluted for western blot analysis using CD44v6 antibody to pull down the specific protein.

wild-type CD44 = wild-type CD44 (Homo sapiens, UniProt P16070); conditions: biotinylated peptide + avidin bead + cell lysate
Description: as §3, §4

MDA-MB-231 tumor model = assay: MDA-MB-231 lung metastasis model; type: in vivo, mice; conditions: peptide i.v. 14.2 mg/g 3 times a week for 3 weeks; crizotinib oral 25 mg/kg; vs saline and control peptide
Description: (§5) For animal models, 6-week-old to 8-week-old Balb/c female mice were purchased from Orient Bio. Mice were cared for and maintained in conformance with the Guidelines of the Institutional Animal Care and Use Committee (IACUC) of Kyungpook National University. Tumors were prepared by injecting 1×10^6 MDA-MB-231 cells via tail vein to develop lung metastatic model in Balb/c female nude mice and 1×10^6 4T1 cells into the lower left mammary fat pad of Balb/c wild type female mice.
(§6) Tumor-bearing mice were subjected to randomization and grouping when the size of the tumors reached approximately 100 mm^3. Each peptide was intravenously injected via the tail vein of mice ([…] of body weight, 3 times a week for 3 weeks). Crizotinib was given through orally (25 mg/kg of body weight, three times a week for 3 weeks) based on a previous study. Tumor size was measured using a digital caliper, and tumor volume was calculated using the following formula: Volume=(L×W×H)/2 (L: length, longest dimension, W: width, shorter dimension, parallel to the mouse body, and H: height, perpendicular to the length and width). Mice were checked for tumor ulceration. At the end of the treatment, the mice were sacrificed, and the lung and liver were isolated and checked for metastatic tumor masses.
MDA-MB231-luc cells (1×10^6 in 0.1 ml PBS) were injected into the lateral tail vein of female nude mice. The mice were then segregated into groups (n=10 per group) based on initial IVIS image. Starting from day 0, mice were administered CD44v6 peptides by intravenously injected via the tail vein of mice ([…] of body weight, 3 times a week for 3 weeks). After the last IVIS imaging, mice were euthanized and lung tissues were removed from each mouse for metastatic tumor masses immunohistochemical analyses.
(§7) At the end of the treatment, mouse blood was collected and hematological factors were analyzed by DGMIF (Daegu-Gyeongbuk Medical Innovation Foundation) (Daegu, Korea).
CD44v6 Peptides was stable without degradation for at least 24 hours in the presence of serum.

4T1 tumor model = assay: Anti-tumor therapy in 4T1 tumor model; type: in vivo, mice; conditions: for tumor and metastatic growth (bioluminescence imaging): peptide i.v. 14.2 mg/kg thrice a week, crizotinib oral 25 mg/kg thrice a week, vs saline
Description: as §5, §6, §7
In vivo anti-tumor activity was further evaluated in 4T1 orthotopic mice models. In relevant with the biodistribution and pharmacokinetic results, in vivo therapy was started by administrating 14.2 mg/kg thrice a week via intravenous injection of CD44v6 peptides and 25 mg/kg crizotinib thrice a week orally.

MDA-MB-231 cells = conditions: MDA-MB-231, dose-dependent
[3] = tested on: c-Met and Erk phosphorylation in MDA-MB-231 cells; conditions: MDA-MB-231, HGF 25-50 ng/mL; peptides 5 ug/ml each, combination 10 μg/ml
Description: Serum-starved cells (24 hours) were induced with the growth factor HGF (25-50 ng/mL), at 37° C. for 10 min. Where indicated, the cells were treated with a CD44v6 specific peptide or a control peptide (50 μg/ml) at 37° C. for 10 min before induction and cells were washed with ice-cold phosphate-buffered saline (PBS). To detect activated Erk and activated c-Met, cells were lysed in boiling sodium dodecyl sulfate (SDS) sample buffer containing 100 mM dithiothreitol (DTT) and subjected to Western blot analysis using antibodies against phosphorylated Erk and phosphorylated c-Met. The loading control was performed on the same blot, stripped (62.5 mM Tris, pH 6.8, 2% SDS, 0.8% DTT), and probed with the Erk and c-Met antibodies. Blots were stained using the enhanced chemiluminescence system (Thermo Fisher Scientific). Bands in Western blot analysis were quantified with the program ImageJ (National Institutes of Health).
In the present invention, MDA-MB-231 and 4T1 cells were serum-starved (24 hours) and were induced with the growth factor HGF (25-50 ng/mL) at 37° C. for 10 min. The cells were treated with a CD44v6 specific peptide or a control peptide (100 ng/ml) at 37° C. for 10 min before induction. To detect activated Erk and activated c-Met, cells were lysed and subjected to Western blot analysis using antibodies against phosphorylated Erk and phosphorylated c-Met. […]

MDA-MB-231 xenograft = conditions: anti-CD44v6 antibody staining
Description: Tumor tissues were further fixed with 4% paraformaldehyde overnight and rapidly frozen. Tissue slices (8-μm thick) were prepared using a cryo-microtome and stained with CD44v6 antibody (Santa Cruz), followed by Alexa 594-labeled goat anti-mouse IgG secondary antibody.

4T1 orthotopic mice = conditions: anti-CD44v6 antibody staining
Description: To analyze ex vivo organ distribution, animals were euthanized at 6 h post-injection with CO2. All major organs (liver, kidney, spleen, heart, and lung) along with tumor tissues were isolated and washed in PBS and ex vivo fluorescence images were taken using the IVIS Lumina III imaging system. Fluorescence intensity within the region of interest (ROI) of each organs was analyzed. Tumor tissues were further fixed with 4% paraformaldehyde overnight and rapidly frozen. Tissue slices (8-μm thick) were prepared using a cryo-microtome and stained with CD44v6 antibody (Santa Cruz), followed by Alexa 594-labeled goat anti-mouse IgG secondary antibody. […]
In vivo fluorescence images were taken before or after injection at various time points (1, 2, 4 and 6 h, respectively) with flamma 675 was injected at the same concentration and method. […]
Ex vivo fluorescence images of excised tumor and organs collected at 6 h post-injection. All major organs (liver, kidney, spleen, heart, and lung) along with tumor tissues were isolated and washed in PBS and ex vivo fluorescence images were taken (n=3) with FPR-675 fluorophore excitation at 675 nm and emission at 698 nm. Fluorescence intensity within the region of interest (ROI) of each organ was analyzed.

c-Met = conditions: biotinylated peptide + avidin bead + cell lysate

Chain of wild-type CD44 (P16070 21-361 isoform P16070-12 limits assumed): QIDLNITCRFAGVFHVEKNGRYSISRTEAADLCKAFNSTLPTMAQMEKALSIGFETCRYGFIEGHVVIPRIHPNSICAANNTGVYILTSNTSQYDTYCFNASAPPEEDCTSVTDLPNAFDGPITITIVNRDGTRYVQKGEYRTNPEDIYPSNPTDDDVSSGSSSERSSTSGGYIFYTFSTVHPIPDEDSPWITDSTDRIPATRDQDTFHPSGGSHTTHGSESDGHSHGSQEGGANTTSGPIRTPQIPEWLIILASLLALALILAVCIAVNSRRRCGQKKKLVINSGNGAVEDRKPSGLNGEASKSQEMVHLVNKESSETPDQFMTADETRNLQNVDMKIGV
Chain of CD44v6 (P16070 386-428 limits assumed): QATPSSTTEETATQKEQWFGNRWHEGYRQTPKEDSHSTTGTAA

Molecule | binding to MDA-MB-231, 4T1 and PANC-1 [1] | binding to MCF-7 (MCF-7) | binding of FITC labelled peptide after silencing of CD44v6 gene (flow cytometry) [2] | binding of FITC labelled peptide after siRNA treatment (immunofluorescence staining) [2] | pull down of CD44v6 (CD44v6) | pull down of wild-type CD44 (wild-type CD44) | metastasis (bioluminescence imaging) (MDA-MB-231 tumor model) | tumor and metastatic growth (bioluminescence imaging) (4T1 tumor model) | binding of FITC labelled peptide after pre-treatment with anti-CD44v6 blocking antibody (MDA-MB-231 cells) | binding of FITC labelled peptide after pre-treatment with anti-CD44v6 blocking antibody (MCF-7 cells) | phosphorylation of c-Met and its downstream target Erk [3] | immunohistochemical examination of tumor tissues (MDA-MB-231 xenograft) | immunohistochemical examination of tumor tissues (4T1 orthotopic mice) | tumor growth (tumor volume) (4T1 tumor model; 4T1 bearing mice) | pull down of c-Met (c-Met)
CNEWQLKSC [v6Pep-2] | bind specifically | did not show specific binding | binding got inhibited | negligible binding | pulled down | not pulled down | inhibited metastatic growth | slightly inhibited tumor and metastatic growth | significantly reduced the binding | minimal effect | drastically reduced the phosphorylation | co-localized with CD44v6 | co-localized with CD44v6 | – | –
C[C@@H](Oc1cc(-c2cnn(C3CCNCC3)c2)cnc1N)c1c(Cl)ccc(F)c1Cl [crizotinib, reference compound] | – | – | – | – | – | – | inhibited metastatic growth | slightly inhibited tumor and metastatic growth | – | – | – | – | – | Slight reduction of tumor volume | –
CNLNTIDTC [v6Pep-1] | bind specifically | did not show specific binding | binding got inhibited | negligible binding | pulled down | not pulled down | inhibited metastatic growth | slightly inhibited tumor and metastatic growth | significantly reduced the binding | minimal effect | drastically reduced the phosphorylation | co-localized with CD44v6 | co-localized with CD44v6 | – | pulled down

Reference: patent US11192920B2, “Peptides for binding to CD44v6 and use thereof” (KYUNGPOOK NATIONAL UNIVERSITY INDUSTRY-ACADEMIC COOPERATION …, priority 2017, dated 2021)
